Source: patent US20080269174A1 (priority 2005, published 2008)
“And” between values parts separate entries of the source, which are not always exact repeats. Equal values may be shown once. Read-outs that look alike come from different tables or passages of the source.

Experiments:
Assay in all cases: microbe, parasite or virus in culture
Assay type in all cases: cell-based
[1] = system: Pythium ultimum
[2] = system: Rhizoctonia solani; conditions: 72 h, read-out: % activity observed
[3] = system: Ustilago nuda
[4] = system: Pyrenophora graminea; conditions: for % activity observed: 72 hrs
[5] = system: Fusarium graminearum; conditions: for % activity observed: 48 hrs
[6] = system: Monographella nivalis; conditions: for % activity observed: 72 hrs
[7] = system: Gaeumannomyces graminis; conditions: for % activity observed: 72 hrs
[8] = Globisporangium ultimum, 48 h, read-out: % activity observed
[9] = Ustilago nuda, 48 h, read-out: % activity observed
[10] = Pyrenophora graminea, 72 h, read-out: % activity observed
[11] = Fusarium graminearum, 48 h, read-out: % activity observed, 10 ppm applied alone
[12] = Monographella nivalis, 72 h, read-out: % activity observed
[13] = Gaeumannomyces graminis, 72 h, read-out: % activity observed

`CC1COC(Cn2cncn2)(c2ccc(Oc3ccc(Cl)cc3)cc2Cl)O1` (stereo not shown) [Difenconazole, Difenoconazole] showed an inhibition at 0.014 ppm [1, 8] of 5%, an inhibition at 0.041 ppm [1, 8] of 0% and an inhibition at 0.123 ppm [1, 8] of 0%. The inhibition at 0.37 ppm [1, 8] was 0%, the inhibition at 1.111 ppm [1, 8] was 0% and the inhibition at 3.333 ppm [1, 8] was 0%. For the same molecule, the inhibition at 10 ppm [1, 8] was 7%, the inhibition at 0.014 ppm [2] was 5% and the inhibition at 0.041 ppm [2] was 0%. For the same molecule, the inhibition at 0.123 ppm [2] was 27%, the inhibition at 0.37 ppm [2] was 30% and the inhibition at 1.111 ppm [2] was 84%. It also gave an inhibition at 3.333 ppm [2] of 88%, an inhibition at 10 ppm [2] of 84% and an inhibition at 0.014 ppm [3, 9] of 4%. For the same molecule, the inhibition at 0.041 ppm [3, 9] was 0%, the inhibition at 0.123 ppm [3, 9] was 0% and the inhibition at 0.37 ppm [3, 9] was 0%. For the same molecule, the inhibition at 1.111 ppm [3, 9] was 0%, the inhibition at 3.333 ppm [3, 9] was 0% and the inhibition at 10 ppm [3, 9] was 60%. It also gave an inhibition at 0.014 ppm [4, 10] of 20%, an inhibition at 0.041 ppm [4, 10] of 29% and an inhibition at 0.123 ppm [4, 10] of 41%. It also gave an inhibition at 0.37 ppm [4, 10] of 70%, an inhibition at 1.111 ppm [4, 10] of 86% and an inhibition at 3.333 ppm [4, 10] of 87%. It also gave an inhibition at 10 ppm [4, 10] of 86%, an inhibition at 0.014 ppm ([5]; Fusarium graminearum, 48 h, read-out: % activity observed, 0.014 ppm applied alone) of 8% and an inhibition at 0.041 ppm ([5]; Fusarium graminearum, 48 h, read-out: % activity observed, 0.041 ppm applied alone) of 6%. The inhibition at 0.123 ppm ([5]; Fusarium graminearum, 48 h, read-out: % activity observed, 0.123 ppm applied alone) was 14%, the inhibition at 0.37037 ppm ([5]; Fusarium graminearum, 48 h, read-out: % activity observed, 0.3703704 ppm applied alone) was 16% and the inhibition at 1.11111 ppm ([5]; Fusarium graminearum, 48 h, read-out: % activity observed, 1.1111111 ppm applied alone) was 34%. It also gave an inhibition at 3.33333 ppm ([5]; Fusarium graminearum, 48 h, read-out: % activity observed, 3.3333333 ppm applied alone) of 73% and an inhibition at 10 ppm [5, 11] of 92%.

`COCC(=O)N(c1c(C)cccc1C)[C@H](C)C(=O)OC` [Mefenoxam] was tested, and the “% activity observed” value ([3]; 48 hrs) was 0% and 2% and 5% and 8%, the “% activity observed” value [4] was 0% and 5% and the “% activity observed” value [6] was 0%. For the same molecule, the “% activity observed” value ([5]; 0.014 ppm applied alone) was 6%, the “% activity observed” value ([5]; 0.041 ppm applied alone) was 0% and the “% activity observed” value ([5]; 0.123 ppm applied alone) was 0%. The “% activity observed” value ([5]; 0.370 ppm applied alone) was 0%, the “% activity observed” value ([5]; 1.111 ppm applied alone) was 0% and the “% activity observed” value ([5]; 3.333 ppm applied alone) was 2%. The “% activity observed” value ([5]; 10.000 ppm applied alone) was 1% and the “% activity observed” value [7] was 0% and 4% and 3%.

For `CC(C)(C)C(O)(CCc1ccc(Cl)cc1)Cn1cncn1` (stereo not shown) [Tebuconazole], the “% activity observed” value ([1]; 48 hrs) was 2% and 4% and 0%, the inhibition at 0.123 ppm [1, 8] was 1% and the inhibition at 10 ppm [1, 8] was 22%. It also gave an inhibition at 3.333 ppm [2] of 96%, an inhibition at 10 ppm [2] of 100% and an inhibition at 0.014 ppm [3, 9] of 0%. For the same molecule, the inhibition at 0.041 ppm [3, 9] was 0%, the inhibition at 10 ppm [3, 9] was 26% and the “% activity observed” value [4] was 54% and 89% and 74%. The inhibition at 0.041 ppm [4, 10] was 17%, the inhibition at 0.123 ppm [4, 10] was 48% and the inhibition at 0.37 ppm [4, 10] was 57%. The inhibition at 1.111 ppm [4, 10] was 77%, the inhibition at 3.333 ppm [4, 10] was 87% and the inhibition at 10 ppm [4, 10] was 94%. For the same molecule, the “% activity observed” value [6] was 6%, the inhibition at 0.014 ppm [6, 12] was 9% and the inhibition at 0.041 ppm [6, 12] was 3%. For the same molecule, the inhibition at 1.111 ppm [6, 12] was 0%, the inhibition at 3.333 ppm [6, 12] was 62% and the inhibition at 10 ppm [6, 12] was 94%. For the same molecule, the “% activity observed” value ([5]; 0.014 ppm applied alone) was 3% and 1%, the “% activity observed” value ([5]; 0.041 ppm applied alone) was 11% and 5% and 9% and the “% activity observed” value ([5]; 0.370 ppm applied alone) was 34% and 39%. The “% activity observed” value ([5]; 1.111 ppm applied alone) was 62% and 55%, the “% activity observed” value ([5]; 3.333 ppm applied alone) was 88% and the “% activity observed” value ([5]; 10.000 ppm applied alone) was 95% and 97%. The inhibition at 0.0137 ppm ([5]; Fusarium graminearum, 48 h, read-out: % activity observed, 0.0137 ppm applied alone) was 0%, the inhibition at 0.0412 ppm ([5]; Fusarium graminearum, 48 h, read-out: % activity observed, 0.0412 ppm applied alone) was 7% and the inhibition at 0.1235 ppm ([5]; Fusarium graminearum, 48 h, read-out: % activity observed, 0.1235 ppm applied alone) was 16%. For the same molecule, the inhibition at 0.37 ppm ([5]; Fusarium graminearum, 48 h, read-out: % activity observed, 0.370 ppm applied alone) was 37%, the inhibition at 0.3704 ppm ([5]; Fusarium graminearum, 48 h, read-out: % activity observed, 0.3704 ppm applied alone) was 33% and the inhibition at 1.111 ppm ([5]; Fusarium graminearum, 48 h, read-out: % activity observed, 1.111 ppm applied alone) was 50%. The inhibition at 1.1111 ppm ([5]; Fusarium graminearum, 48 h, read-out: % activity observed, 1.1111 ppm applied alone) was 66%, the inhibition at 3.333 ppm ([5]; Fusarium graminearum, 48 h, read-out: % activity observed, 3.333 ppm applied alone) was 98% and the inhibition at 3.3333 ppm ([5]; Fusarium graminearum, 48 h, read-out: % activity observed, 3.3333 ppm applied alone) was 94%. For the same molecule, the inhibition at 10 ppm [5, 11] was 94%, the inhibition at 10 ppm ([5]; Fusarium graminearum, 48 h, read-out: % activity observed, 10.000 ppm applied alone) was 100% and the “% activity observed” value [7] was 100%. The inhibition at 0.041 ppm [7, 13] was 16%, the inhibition at 0.123 ppm [7, 13] was 64% and the inhibition at 0.37 ppm [7, 13] was 97%. It also gave an inhibition at 1.111 ppm [7, 13] of 98%, an inhibition at 3.333 ppm [7, 13] of 98% and an inhibition at 10 ppm [7, 13] of 96%.
